Test results: patent publication US20020147175A1, “Synergistic ECTA compositions” (priority 2000, published 2002)

Legend:
Assay type in all cases: cell-based, human
MCF7TDX cells [1] = test: 384-well alamarBlue interaction screening assay with NB1011; conditions: drug combined with NB1011, 5-day incubation, average of at least 4 consecutive dose/effect levels
Description: (§1) Normal human colon epithelial cells (CCD18co) and skin fibroblasts (Det551) were purchased from ATCC (Rockville, Md.). MCF7TDX, human breast carcinoma cells resistant to 2 μM Tomudex were obtained from Dr. Patrick Johnston, Queens University, Belfast. […] The MCF7TDX and the H630R10 cell lines have been previously described in Drake, J. C. et al., 1996 and Copur, S. et al., 1995, respectively.
(§2) All cells were cultured under standard conditions of 37° C., 95% humidified air, 5% CO2 in RPMI 1640 culture medium containing 10% fetal calf serum (Life Technologies) and penicillin/streptomycin/fungizone. MCF7TDX cells were maintained continuously in 2 μM Tomudex, and H630R10 cells were maintained continuously in 10 μM 5-FU. The medium was renewed or the cells were passaged about every three days to maintain optimal growth conditions. Normal cells were passaged a maximum of 15 times to avoid senescence.
(§3) 500 cells per well were transferred to a 384-well tissue culture plate (Corning Inc., Corning, N.Y.) and allowed to attach for 24 hours in standard culture conditions. Compounds were then applied in a bidirectional (checker board) pattern (Chou, T. C. and Talalay, P. 1984). Following a 5-day incubation, the redox indicator dye, alamarBlue (AccuMed International, Westlake, Ohio) was added to each well at a 10% v/v ratio, and fluorescence was monitored at 535 excitation, 595 emission. Cytotoxic effect levels and drug interactions were assessed by the combination index method (Chou, T. C. and Talalay, P. 1984 and Bible, K. C. et al. 1997), described briefly below.
(§4) Only experiments with linear correlation coefficients (r)>0.9 were accepted for analysis. A combination index (CI) was then calculated to assess synergism or antagonism according to the following equation which assumes an independent mechanism of drug action (mutual exclusivity):
(§5) CI=(D)1/(Dx)1+(D)2/(Dx)2+(D)1(D)2/(Dx)1(Dx)2 [Equation 2]
(§6) where (D)1 and (D)2 are the concentrations of drug 1 and drug 2 which combined produce x% inhibition, and (Dx)1 and(Dx)2 are the concentrations of each drug which alone produce x% inhibition. CI=1 indicates an additive interaction, CI<1 indicates synergy, and CI>1 indicates antagonism. For each experiment CI's from several different effect levels and concentrations of a constant molar ratio were averaged.
(§7) In general, a combination index of <1 indicates synergy, ˜1 indicates additivity, and >1 indicates antagonism (Pegram, M. D. et al. (1999)).

[2] = test system: CCD18co normal colon epithelial cells; test: 96-well crystal violet combination cytotoxicity assay with NB1011; conditions: for Average combination index (CI): drug combined with NB1011 at constant molar ratio, CCD18co normal cells, 96-well crystal violet, 72 hour incubation; for Interaction: interaction with NB1011, CCD18co
Description: as §1, §2
(§8) Exponentially rowing cells were transferred at a density of 1.0−5.5×10^3 cells per well to a 96-well tissue culture plate and allowed to attach for 24 hours. Compounds were then applied in duplicate half log serial dilutions. Each compound was tested separately, and mixed together at a single molar ratio approximately equal to the ratio of the individual IC50 values. After an additional 72 hour incubation, cells were washed once with PBS and stained with 0.5% crystal violet in methanol. Plates were washed gently in water to remove unbound stain and allowed to dry overnight. Crystal violet stain bound to the total protein of attached cells was redissolved in Sorenson's buffer (0.025 M sodium citrate, 0.025 M citric acid in 50% ethanol), and absorbance monitored at 535 nm. Sigmoid curves were fit according to the Hill inhibitory Emax model, and IC50 calculated as the average of three or more separate determinations. Where applicable, the combination index for multiple drug effects was calculated according to the median-effect principle (Chou, T. C. and Talalay, P. 1984) using the CalcuSyn software from Biosoft (Ferguson, Mo.). Briefly, the IC50 and the slope parameter (m) for each agent alone were determined from the median effect plot, an x,y plot of log(D) vs log (fa/fu) based on Chou's median effect equation:
(§9) fa/fu=(D/Dm)^m [Equation 1]
as §4, §5, §6
(§10) The 96-well format was chosen for more detailed drug interaction studies. […] To analyze whether any of these drugs would enhance the activity of NB1011 specifically in tumor cells, two normal cell types, Det551 and CCD18co, were included in the assays.

[3] = test system: Det551 normal skin fibroblasts; test: as above; conditions: for Average combination index (CI): drug combined with NB1011 at constant molar ratio, Det551 normal cells, 96-well crystal violet, 72 hour incubation; for Interaction: interaction with NB1011, Det551; for interaction: key: Syn = synergy; Ant = antagonism; Add = additivity
Description: as §1, §2, §8, §9, §4, §5, §6, §10

H630R10 cells [4] = test: as above; conditions: for Average combination index (CI): drug combined with NB1011 at constant molar ratio, 96-well crystal violet, 72 hour incubation; for Interaction: interaction with NB1011
Description: as §1, §2, §8, §9, §4, §5, §6, §10

MCF7TDX cells [5] = test: as above; conditions: for Average combination index (CI): drug combined with NB1011 at constant molar ratio, 96-well crystal violet, 72 hour incubation; for Interaction: interaction with NB1011
Description: as §1, §2, §8, §9, §4, §5, §6, §10

H630R10 cells [6] = test: 384-well alamarBlue interaction screening assay with NB1011; conditions: drug combined with NB1011, 5-day incubation, average of at least 4 consecutive dose/effect levels
Description: as §1, §2, §3, §4, §5, §6, §7

| Compound | Combination Index ± s.e.m. (MCF7TDX cells [1]) | Average combination index (CI) [2] | Interaction [2] | Average combination index (CI) [3] | Interaction [3] | Average combination index (CI) (H630R10 cells [4]) | Interaction (H630R10 cells [4]) | Average combination index (CI) (MCF7TDX cells [5]) | Interaction (MCF7TDX cells [5]) | Combination Index ± s.e.m. (H630R10 cells [6]) |
| --- | --- | --- | --- | --- | --- | --- | --- | --- | --- | --- |
| N.N.[Cl][Pt][Cl] [Cisplatin] | 1.51 ± 0.35 |  |  |  |  |  |  |  |  |  |
| OCCN(CCO)c1nc(N2CCCCC2)c2nc(N(CCO)CCO)nc(N3CCCCC3)c2n1 [Dipyridamole, dipyridamole] |  | 1.30 | Ant | 1.17 | Add | 0.75 | Syn | 0.51 | Syn |  |
| COc1cccc2c1C(=O)c1c(O)c3c(c(O)c1C2=O)C[C@@](O)(C(=O)CO)C[C@@H]3O[C@H]1C[C@H](N)[C@H](O)[C@H](C)O1 [Doxorubicin] |  |  |  |  |  |  | Ant |  | Ant |  |
| CCc1c2c(nc3ccc(OC(=O)N4CCC(N5CCCCC5)CC4)cc13)-c1cc3c(c(=O)n1C2)COC(=O)[C@]3(O)CC [Irinotecan] |  |  |  |  |  |  |  |  |  | 1.26 ± 0.20 |
| O=[N+]([O-])c1ccc(CSc2ncnc3c2ncn3C2OC(CO)C(O)C2O)cc1 (stereo not shown) [NBMPR, p-nitrobenzylthioinosine] |  | 3.93 | Ant | 1.43 | Ant | 0.35 | Syn | 0.57 | Syn |  |
| O=C1[O][Pt]2([NH][C@@H]3CCCC[C@H]3[NH]2)[O]C1=O [Oxaliplatin] |  |  |  |  |  |  | Ant |  | Ant |  |
| CC(=O)O[C@H]1C(=O)[C@@]2(C)[C@H]([C@H](OC(=O)c3ccccc3)[C@]3(O)C[C@H](OC(=O)[C@H](O)[C@@H](NC(=O)c4ccccc4)c4ccccc4)C(C)=C1C3(C)C)[C@]1(OC(C)=O)CO[C@@H]1C[C@@H]2O [Taxol] |  |  |  |  |  |  |  |  |  | 0.99 ± 0.15 |
| CC[C@]1(O)C[C@@H]2CN(CCc3c([nH]c4ccccc34)[C@@](C(=O)OC)(c3cc4c(cc3OC)N(C)[C@H]3[C@@](O)(C(=O)OC)[C@H](OC(C)=O)[C@]5(CC)C=CCN6CC[C@]43[C@@H]65)C2)C1 [Vinblastine] |  |  | Syn |  | Syn |  | Syn |  | Ant | 0.78 ± 0.32 |
